Columns and labels:
[1] = singlet oxygen efficiency test, reference rose bengal; format: physicochemical
[2] = absorption spectrum (maximum absorption wavelength, molar extinction coefficient); format: physicochemical
[3] = photostability under 635 nm laser irradiation; format: physicochemical; settings: 30 min, 20 mW/cm^2, FIG. 9
Protocol: FIG. 9 is a comparison diagram of photostabilities of the hypocrellin derivative prepared in the present invention and a commercial photosensitizer. […] However, in the same condition, after being irradiated with a 635 nm laser for 30 min at a light intensity of 20 mW/cm^2, maximum absorption performance of the commercial porphin photosensitizer Ce6 is decreased by 30% (curve c); and an absorption spectrum of the commercial hematoporphyrin photosensitizer HpD is decreased more, reaching about 50% (curve d). Therefore, in the same condition, the hypocrellin derivative prepared in the present invention has a better photostability than the commercial photosensitizers.

Hela cells = assay: photo-cytotoxicity experiment (MTT, 635 nm laser); format: cell-based
Protocol: Photo-cytotoxicity experiment on cell: cultured Hela cells were digested and pipetted with 0.25% trypsin and to prepare a single-cell suspension, the number of cells was adjusted to about 2×10^4 per milliliter, and 200 uL of the suspension was seeded in a well of a 96-well culture plate, which is placed in a 37° C. incubator containing 5% CO2 for cultivation. After the cells adhere to the wall, a supernatant culture solution was discarded, and photosensitizers of different concentrations, that is, the hematoporphyrin derivative HpD, the hypocrellin B HB, or HB-1c-PEG6 synthesized in example 3, were added in a strictly lucifugous condition in accordance with experimental designs, and the culture plate was placed in the 37° C. incubator containing 5% CO2 for further cultivation and incubation for 1 hour. Then, a semiconductor laser with a wavelength of 635 nm was used for irradiation, a power density was adjusted to 20 mW/cm^2, light beams were evenly and vertically applied onto the 96-well culture plate, and an irradiation time was 1000 S. In addition, each 96-well culture plate is provided with a blank group, and 6 holes were provided for in each condition. After irradiation, the culture plate was placed in the 37° C. incubator containing 5% CO2 for further cultivation and incubation for 24 hours, and then a cellular survival rate was measured. The cellular survival rate was measured by means of the MTT method. 20 uL of MTT was added to each well, wherein the MTT is MTT prepared with PBS and having a concentration of 5 mg/ml. The culture plate was placed in the 37° C. incubator containing 5% CO2 for further cultivation for 4 hours, after which the cultivation was terminated. A supernatant in the well was extracted and discarded carefully. Then, 150 uL of dimethyl sulfoxide (DMSO) was added to each well, and the culture plate was shaken by using a micro shaker for 10 minutes to fully dissolve a purple crystal substance. A wavelength of 570 nm was selected to measure an optical density value (i.e., OD value) of each well on a microplate reader, and the cellular survival rate was calculated in accordance with the following formula: cellular survival rate=OD value of an experimental group/OD value of a blank group×100%.

[4] = water solubility in normal saline; format: physicochemical; settings: per milliliter of normal saline
Protocol: Most of photosensitizer molecules disclosed in this patent contain a large number of hydrophilic groups, such as a polyethylene glycol chain, a quaternary ammonium salt, a carboxyl group, and a sulfonic acid group, etc., making the photosensitizer molecules have very high water solubility in a physiological condition; and experiments indicate that each milliliter of normal saline or glucose injection can dissolve more than 5 mg of such the photosensitizer molecules, presenting excellent water solubility. Therefore, the photosensitive drug can be well transported in blood vessels during intravenous injection, without causing a vascular blockage. HB-1c-C2-N+ prepared in example 4 contains two quaternary ammonium salts, and each milliliter of normal saline can dissolve more than 20 mg of photosensitizer molecules; HC-1c-PEG6 prepared in example 6 contains two 6-PEG chains, and each milliliter of normal saline can dissolve more than 20 mg of photosensitizer molecules; HB-8c prepared in example 19 contains two carboxyl groups, and each milliliter of normal saline can dissolve more than 10 mg of photosensitizer molecules; HB-13c prepared in example 35 contains two carboxyl groups, and each milliliter of normal saline can dissolve more than 10 mg of photosensitizer molecules; and HB-13c-PEG8 prepared in example 37 contains two 8-PEG chains, and each milliliter of normal saline can dissolve more than 20 mg of photosensitizer molecules. These photosensitizer molecules all present excellent water solubility.

[5] = 240 nM, 635 nm red light, FIG. 16(b)
[6] = 200 nM, 635 nm light, FIG. 14(b)

| SMILES | singlet oxygen yield [1] [%] | maximum absorption wavelength [2] [nm] | molar extinction coefficient [2] | also measured |
| --- | --- | --- | --- | --- |
| COc1c2c3c4c(c(NCCO)c(=O)c5c(NCCO)cc(OC)c(c6c(OC)cc(O)c(c1=O)c63)c54)C=C(C)C2 [HC-2c] | 40 | 636 | 31,000 M^−1cm^−1 | decrease of absorption intensity at the maximum wavelength [3]: less than 10% |
| COCCOCCOCCOCCOCCOCCOCCOCCOCCNC(=O)C1CCC(CNc2c3c4c5c(c(OC)c(=O)c6c(O)cc(OC)c(c7c(OC)cc(NCC8CCC(C(=O)NCCOCCOCCOCCOCCOCCOCCOCCOCCOC)CC8)c(c2=O)c74)c65)CC(C)=C3)CC1 (centres unmarked) [HC-13c-NH-PEG8] | 38 | 630 | 33,500 M^−1cm^−1 | Hela cells killed (Hela cells; 200 nM, red light, FIG. 18(b)): more than 85% |
| COc1c2c3c4c(c(NCCCC(=O)O)c(=O)c5c(NCCCC(=O)O)cc(OC)c(c6c(OC)cc(O)c(c1=O)c63)c54)C=C(C)C2C(C)=O (centres unmarked) [HB-8c] | 30 | 620 | 29,500 M^−1cm^−1 | amount dissolved by each milliliter of normal saline [4]: more than 10 mg |
| COc1c2c3c4c(c(NCC5CCC(C(=O)O)CC5)c(=O)c5c(NCC6CCC(C(=O)O)CC6)cc(OC)c(c6c(OC)cc(O)c(c1=O)c63)c54)C=C(C)C2C(C)=O (centres unmarked) [HB-13c] | 30 | 621 | 29,500 M^−1cm^−1 | amount dissolved by each milliliter of normal saline [4]: more than 10 mg; Hela cells killed (Hela cells; [5]): more than 85% |
| C=Cc1c(C)c2cc3nc(c(CC(=O)O)c4[nH]c(cc5nc(cc1[nH]2)C(C)=C5CC)c(C)c4C(=O)O)[C@@H](CCC(=O)O)[C@@H]3C [Ce6, reference compound] | – | 650 | less than 20000 M^−1cm^−1 | decrease of absorption intensity at the maximum wavelength [3]: 30% |
| COc1c2c3c4c(c(OC)c(=O)c5c(O)cc(OC)c(c6c(OC)cc(O)c(c1=O)c63)c54)CC(C)=C2 [HC, deacetyl hypocrellin] | – | – | – | Hela cells killed (Hela cells; 140 nM, 635 nm light, FIG. 13(b)): 40%; Hela cells killed (Hela cells; [6]): 50%; Hela cells killed (Hela cells; 240 nM, 635 nm light, FIG. 15(b)): 50% |
| COc1c2c3c4c(c(NCCCC(=O)O)c(=O)c5c(NCCCC(=O)O)cc(OC)c(c6c(OC)cc(O)c(c1=O)c63)c54)C=C(C)C2 [HC-8c] | 27 | 618 | 28,500 M^−1cm^−1 | Hela cells killed (Hela cells; [6]): more than 85% |
| COCCOCCOCCOCCOCCOCCOCCC(=O)OCCNc1c2c3c4c(c(OC)c(=O)c5c(NCCOC(=O)CCOCCOCCOCCOCCOCCOCCOC)cc(OC)c(c6c(OC)cc(O)c(c1=O)c63)c54)CC(C)=C2 [HC-2d-PEG6] | 32 | 624 | 31,500 M^−1cm^−1 | decrease of absorption intensity at the maximum wavelength [3]: less than 10% |
| COc1c(O)c2c(=O)cc(OC)c3c4c(OC)cc(=O)c5c(O)c(OC)c6c(c(c1CC(C)=C6C(C)=O)c23)c54 [HB, hypocrellin B] | – | 450 | – | Hela cells killed (Hela cells; 160 nM, 635 nm laser, FIG. 12(b)): about 30%; Hela cells killed (Hela cells; 160 nM, 635 nm laser, FIG. 12(b), listed as hypocrellin B): about 20%; Hela cells killed (Hela cells; 160 nM, red light, FIG. 17(b)): 30%; Hela cells killed (Hela cells; 200 nM, red light, FIG. 18(b)): 60%; Hela cells killed (Hela cells; [5]): 30% |
| COCCOCCOCCOCCOCCOCCOCCC(=O)OCC1(Nc2c(O)c3c(=O)cc(OC)c4c5c(OC)cc(=O)c6c(NC7(COC(=O)CCOCCOCCOCCOCCOCCOCCOC)CC7)c(OC)c7c(c(c2C=C(C)C7C(C)=O)c34)c65)CC1 (centres unmarked) [HB-35b-PEG6] | 32 | 624 | 30,500 M^−1cm^−1 | – |
| COc1c(O)c2c(=O)cc(OC)c3c4c(OC)cc(=O)c5c(NCCCC(=O)O)c(NCCCC(=O)O)c6c(c(c1C(C(C)=O)C(C)=C6)c23)c54 (centres unmarked) [HB-8a] | 25 | 622 | 27,500 M^−1cm^−1 | amount dissolved by each milliliter of normal saline [4]: more than 5 mg |
| COCCOCCC(=O)OCCOCCNc1c(NCCOCCOC(=O)CCOCCOC)c2c(=O)cc(OC)c3c4c(OC)cc(=O)c5c(O)c(OC)c6c(c(c1C=C(C)C6C(C)=O)c23)c54 (centres unmarked) [HB-1a-PEG1] | 35 | 625 | 31,000 M^−1cm^−1 | – |
| COCCOCCN1CCC(CNc2c(NCC3CCN(CCOCCOC)CC3)c3c(=O)cc(OC)c4c5c(OC)cc(=O)c6c(O)c(OC)c7c(c(c2C=C(C)C7C(C)=O)c34)c65)CC1 (centres unmarked) [HB-32a-PEG1] | 32 | 622 | 32,000 M^−1cm^−1 | – |
| COc1c(O)c2c(=O)cc(OC)c3c4c(OC)cc(=O)c5c(NC6CCC(C(=O)O)C6)c(NC6CCC(C(=O)O)C6)c6c(c(c1C(C(C)=O)C(C)=C6)c23)c54 (centres unmarked) [HB-19a] | 21 | 621 | 25,500 M^−1cm^−1 | – |
| COc1c2c3c4c(c(NCc5cccc[n+]5C)c(=O)c5c(NCc6cccc[n+]6C)cc(OC)c(c6c(OC)cc(O)c(c1=O)c63)c54)C=C(C)C2C(C)=O (centres unmarked) [HB-38c-N^+] | 21 | 622 | 22,500 M^−1cm^−1 | – |
| COc1c(NC(CS)C(=O)O)c2c(=O)cc(OC)c3c4c(OC)cc(=O)c5c(O)c(NC(CS)C(=O)O)c6c(c(c1C(C(C)=O)C(C)=C6)c23)c54 (centres unmarked) [HB-25b] | 20 | 629 | 20,500 M^−1cm^−1 | – |
| COc1c2c3c4c(c(NC(CC(=O)O)C(=O)O)c(=O)c5c(NC(CC(=O)O)C(=O)O)cc(OC)c(c6c(OC)cc(O)c(c1=O)c63)c54)C=C(C)C2C(C)=O (centres unmarked) [HB-27c] | 21 | 625 | 21,500 M^−1cm^−1 | – |
| COCCOCCC(=O)OCC1(Nc2c(NC3(COC(=O)CCOCCOC)CC3)c3c(=O)cc(OC)c4c5c(OC)cc(=O)c6c(O)c(OC)c7c(c(c2C=C(C)C7C(C)=O)c34)c65)CC1 (centres unmarked) [HB-35a-PEG1] | 34 | 624 | 31,500 M^−1cm^−1 | – |
| COc1c(O)c2c(=O)cc(OC)c3c4c(OC)cc(=O)c5c(NC6CCCC(C(=O)O)C6)c(NC6CCCC(C(=O)O)C6)c6c(c(c1C(C(C)=O)C(C)=C6)c23)c54 (centres unmarked) [HB-15a] | 25 | 625 | 27,000 M^−1cm^−1 | – |
| COc1c(NCc2ccccn2)c2c(=O)cc(OC)c3c4c(OC)cc(=O)c5c(O)c(NCc6ccccn6)c6c(c(c1C(C(C)=O)C(C)=C6)c23)c54 (centres unmarked) [HB-38b] | 16 | 621 | 18,500 M^−1cm^−1 | – |
| COc1c(NCCO)c2c(=O)cc(OC)c3c4c(OC)cc(=O)c5c(O)c(NCCO)c6c(c(c1C(C(C)=O)C(C)=C6)c23)c54 (centres unmarked) [HB-2b] | 25 | 627 | 31.500 M⁻¹ cm⁻¹ | – |
| COc1c2c3c4c(c(NC(CCC(=O)O)C(=O)O)c(=O)c5c(NC(CCC(=O)O)C(=O)O)cc(OC)c(c6c(OC)cc(O)c(c1=O)c63)c54)C=C(C)C2C(C)=O (centres unmarked) [HB-28c] | 22 | 625 | 21,500 M^−1cm^−1 | – |

Source: US11439707B2, “Hypocrellin derivative substituted both in a peri-position and in 2-position by amino, preparation method, and application thereof” (priority 2017, dated 2022)
